This is an account of results in publication PMC6475490 (Psychopharmacology, 2018).

One may read the EC50 as the concentration that produces a half-maximal response.

“Also recorded” adds a separate entry of the source. A value given as a limit tells only on which side of the number the result lay.

For assay [1], the target named is SERT (Rattus norvegicus, UniProt P31652). Nature of the assay: SERT-mediated [3H]5-HT release assay in rat brain synaptosomes. Format: biochemical. Conditions: relative to methcathinone 1.
Chain of SERT (P31652 whole entry): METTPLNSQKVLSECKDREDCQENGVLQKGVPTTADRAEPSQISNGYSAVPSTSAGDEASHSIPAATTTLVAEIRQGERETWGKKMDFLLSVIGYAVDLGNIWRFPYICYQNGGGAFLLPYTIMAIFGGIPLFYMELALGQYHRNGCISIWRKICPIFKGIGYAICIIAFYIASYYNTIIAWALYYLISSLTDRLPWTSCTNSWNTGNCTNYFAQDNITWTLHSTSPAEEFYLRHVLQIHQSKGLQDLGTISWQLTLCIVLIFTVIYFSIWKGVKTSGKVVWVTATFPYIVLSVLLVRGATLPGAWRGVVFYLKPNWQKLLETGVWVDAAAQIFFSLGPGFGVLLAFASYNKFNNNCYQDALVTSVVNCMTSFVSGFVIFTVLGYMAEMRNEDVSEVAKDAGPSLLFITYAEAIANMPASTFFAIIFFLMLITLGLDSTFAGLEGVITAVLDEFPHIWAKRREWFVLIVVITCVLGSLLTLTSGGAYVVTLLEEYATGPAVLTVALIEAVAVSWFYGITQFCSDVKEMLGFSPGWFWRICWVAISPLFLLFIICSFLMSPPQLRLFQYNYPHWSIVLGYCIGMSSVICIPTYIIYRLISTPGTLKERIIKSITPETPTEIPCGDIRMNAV
Assay [2] deals with NET (Rattus norvegicus, UniProt Q63380). Nature of the assay: NET-mediated [3H]MPP+ release screen in rat brain synaptosomes. Conditions: based on % release at 10 µM screening data. The assay is classed as biochemical.
Chain of NET (Q63380 1-617): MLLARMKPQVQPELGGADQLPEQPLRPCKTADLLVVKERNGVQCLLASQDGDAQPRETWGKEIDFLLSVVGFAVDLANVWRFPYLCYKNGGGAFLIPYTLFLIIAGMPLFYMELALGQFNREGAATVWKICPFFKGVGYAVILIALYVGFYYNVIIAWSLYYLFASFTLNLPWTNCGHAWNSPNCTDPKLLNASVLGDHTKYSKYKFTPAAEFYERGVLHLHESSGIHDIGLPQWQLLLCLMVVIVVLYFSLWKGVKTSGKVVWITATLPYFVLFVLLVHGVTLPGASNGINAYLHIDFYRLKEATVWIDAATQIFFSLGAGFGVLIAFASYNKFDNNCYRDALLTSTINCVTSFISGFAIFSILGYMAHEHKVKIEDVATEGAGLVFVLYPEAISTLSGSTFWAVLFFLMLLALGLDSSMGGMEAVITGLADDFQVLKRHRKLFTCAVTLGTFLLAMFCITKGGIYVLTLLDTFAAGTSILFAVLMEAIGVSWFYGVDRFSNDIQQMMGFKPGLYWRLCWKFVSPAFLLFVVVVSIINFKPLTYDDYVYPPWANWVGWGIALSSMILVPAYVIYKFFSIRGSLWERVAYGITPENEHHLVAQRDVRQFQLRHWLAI
Assay [3] has as its target DAT (Rattus norvegicus, UniProt P23977). Briefly: DAT-mediated [3H]DA release assay in rat brain synaptosomes. The assay is classed as biochemical.
For assay [4], the system named is DAT, SERT, and NET. Format: biochemical, rat. To be noted: from DAT, SERT EC50 and NET screening data.
The subject of assay [5] is transporters. To be noted: CF3 analogs; ref Cozzi et al. 2013; cited from earlier work.
Assay [6] concerns rats. Conditions: ref Gatch et al. 2015; cited from earlier work.
For assay [7], the system named is rats. Conditions: ref Glennon et al. 1987; cited from earlier work.
Assay [8] deals with baboons. Conditions: ref Kaminski and Griffiths 1994; cited from earlier work.

Chain of DAT (P23977 whole entry): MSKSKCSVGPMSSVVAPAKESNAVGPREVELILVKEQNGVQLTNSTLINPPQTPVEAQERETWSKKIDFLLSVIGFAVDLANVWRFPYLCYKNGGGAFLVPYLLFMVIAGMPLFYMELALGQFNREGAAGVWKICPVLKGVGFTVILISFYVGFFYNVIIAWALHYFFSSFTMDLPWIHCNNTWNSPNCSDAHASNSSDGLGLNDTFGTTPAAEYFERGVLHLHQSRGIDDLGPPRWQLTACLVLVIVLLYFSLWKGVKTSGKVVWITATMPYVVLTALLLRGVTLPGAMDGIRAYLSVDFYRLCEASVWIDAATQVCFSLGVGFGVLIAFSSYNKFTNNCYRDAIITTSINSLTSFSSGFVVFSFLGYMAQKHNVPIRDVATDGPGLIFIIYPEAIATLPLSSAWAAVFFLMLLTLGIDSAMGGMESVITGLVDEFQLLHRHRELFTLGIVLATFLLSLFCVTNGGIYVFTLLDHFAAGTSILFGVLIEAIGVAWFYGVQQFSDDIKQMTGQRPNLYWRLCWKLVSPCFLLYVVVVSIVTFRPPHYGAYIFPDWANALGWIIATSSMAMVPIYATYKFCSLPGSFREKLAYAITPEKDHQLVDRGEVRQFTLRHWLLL

Consider `CNC(C)C(=O)c1c[nH]c2ccccc12` (centres unmarked) [Compound 28, 3-indoylmethcathinone], for which the “fold more potent at 5-HT release (SERT) compared to 1” value (“fold more potent at 5-HT release” below) in assay [1] is recorded as 103 fold. Besides, the “NET / NE release activity in words” value in assay [2] is recorded as “much weaker than its DAT release potency”. Moreover, the “fold less potent at DA release (DAT) compared to 1” value (“fold less potent at DA release” below) in assay [3] (relative to methcathinone 1) was about 2 fold.

Consider `CNC(C)C(=O)c1ccccc1C(F)(F)F` (centres unmarked) [Compound 8], for which, in assay [4], the “transporter selectivity profile in words” value was “selective NET releaser; also recorded: selective NE releasers”. Moreover, the “NET / NE release activity in words” value in assay [2] was “appears active as a NE releaser”.

In the case of `CNC(C)C(=O)c1ccc(C(F)(F)F)cc1` (centres unmarked) [Compound 22], in assay [1], the “fold more potent at 5-HT release” value is given as 15 fold. Besides, in assay [5], the “relative selectivity (DAT selectivity)” value is under 0.04. Further, the “transporter selectivity profile in words” value in assay [4] is reported as “most serotonergic; also recorded: low DAT selectivity”. Moreover, in assay [3] (read-out: DA release EC50, bound stated), the EC50 is over 4 µM.

With `CNC(C)C(=O)c1cccc(C(F)(F)F)c1` (centres unmarked) [Compound 14], the “fold more potent at 5-HT release” value in assay [1] is recorded as 14 fold. Also, in assay [4], the “transporter selectivity profile in words” value was “SERT/NET selective releasers; also recorded: selective 5-HT releasers”. Moreover, the “fold less potent at DA release” value in assay [3] (relative to methcathinone 1) came out at 26 fold.

Regarding `CNC(C)C(=O)c1cccc2ccccc12` (centres unmarked) [Compound 26, 1-naphthylmethcathinone], in assay [1], the “fold more potent at 5-HT release” value worked out at 198 fold.

Take `CNC(C)C(=O)c1ccccc1F` (centres unmarked) [Compound 7]: the “transporter selectivity profile in words” value in assay [4] is on record as “DAT selective”.

Regarding `CNC(C)C(=O)c1cccc(C)c1` (centres unmarked) [Compound 16], in assay [1], the “fold more potent at 5-HT release” value stood at 14.6 fold.

For the compound `CNC(C)C(=O)c1ccccc1OC(F)(F)F` (centres unmarked) [Compound 9], in assay [2], the “NET / NE release activity in words” value is “weak”.

Turning to `CNC(C)C(=O)c1ccc(C)c(Cl)c1` (centres unmarked) [Compound 31], the “fold more potent at 5-HT release” value in assay [1] is 102 fold. In assay [3] (relative to methcathinone 1), the “fold less potent at DA release” value is 2.5 fold.

Take `CNC(C)C(=O)c1ccc(Br)cc1` (centres unmarked) [Compound 19]: the “fold more potent at 5-HT release” value in assay [1] is reported as 100 fold.

Take `CNC(C)C(=O)c1cccc(Br)c1` (centres unmarked) [Compound 11]: the “fold more potent at 5-HT release” value in assay [1] turned out to be 31 fold. Further, in assay [3] (relative to methcathinone 1), the “fold more potent at DA release (DAT) compared to 1” value is about 2 fold.

Consider `CNC(C)C(=O)c1ccccc1C` (centres unmarked) [Compound 10], for which the “fold more potent at 5-HT release” value in assay [1] is recorded as 12 fold. In addition, the “transporter selectivity profile in words” value in assay [4] was “DAT selective”. In addition, in assay [3] (relative to methcathinone 1), the “fold less potent at DA release” value was 2 fold.

For `CNC(C)C(=O)c1cccc(F)c1` (centres unmarked) [Compound 13, 3-fluoromethcathinone], in assay [6], the locomotor stimulation result is “induce locomotor stimulation”. Further, the “fold more potent at 5-HT release” value in assay [1] is 2.9 fold. For the same compound, the “transporter selectivity profile in words” value in assay [4] is “highly potent, DAT selective compound”.

Turning to `CNC(C)C(=O)c1ccc(F)cc1` (centres unmarked) [Compound 21], the “fold more potent at 5-HT release” value in assay [1] stood at 2.9 fold. Further, the “fold less potent at DA release” value in assay [3] (relative to methcathinone 1) turned out to be 2.4 fold.

Consider `CNC(C)C(=O)c1ccccc1` (centres unmarked) [Compound 1, methcathinone], for which the “substitution for amphetamine in drug discrimination” value in assay [7] was “substitute for amphetamine”. Also, the self-administration entry in assay [8] is on record as “dose-dependently maintain self-administration”. Further, the “transporter selectivity profile in words” value in assay [4] is “DAT selective”.

In the case of `CNC(C)C(=O)c1ccc(C)cc1` (centres unmarked) [Compound 24, mephedrone, reference compound], in assay [1], the “fold more potent at 5-HT release” value is listed as 36 fold.

Regarding `Cl.NCC(=O)c1ccccc1` [Compound 6, phenacylamine, reference compound], in assay [4], the “transporter selectivity profile in words” value is recorded as “DAT selective”. Besides, the “fold less potent at DA release” value in assay [3] (relative to methcathinone 1) came out at 4.2 fold.
